The values that follow come from patent US10918643B2, “No-donors for the treatment of cerebrovascular vasospasms after brain hemorrhage” (Westfaelische Wilhelms-Universitaet Muenster, priority 2015, dated 2021).

Test [1] concerns delayed cerebral ischemia (DCI) after aneurismal SAH. Nature of the test: Clinical neurological status and outcome (Hunt&Hess, WFNS, GCS, mNIH-SS, mRS) of the SAH patient. Particulars: for recurrent clinical deteriorations (times observed): despite Nimodipine and Molsidomine infusions, right- and left-sided deficits or coma.
Test [2] relates to cerebral vasospasm of the middle cerebral artery (MCA) after aneurismal SAH. In words: Transcranial Doppler (TCD) mean blood flow velocity in the MCAs, rescue treatment of one SAH patient. Conditions: for MCA TCD R/L PRE, right / MCA TCD R/L PRE, left: continuously infused Molsidomine.
For test [3], the system named is cerebral arteries / brain perfusion after aneurismal SAH. In words: Radiology (CT, CT-A, CT-P, DSA/arteriography, MRI) of the SAH patient. Type of test: in vivo, human.
Test [4] deals with vasospasm and DCI after SAH. Particulars: cited from earlier work.
The mark [5] stands for this setting: 3, 6, and 12 months follow up, continuous Molsidomine plus intraventricular SNP boluses.
The mark [6] stands for this setting: Discharge at 38th POD, after Molsidomine + Nimodipine + 7 SNP boluses.
[7] abbreviates: discharge on the 38th day after SAH.
Where [8] appears, read: discharge on the 38th day after SAH, Nimodipine + Molsidomine + 7 SNP boluses.

On to `COCCOC(=O)C1=C(C)NC(C)=C(C(=O)OC(C)C)C1c1cccc([N+](=O)[O-])c1` (stereo not drawn) [Nimodipine], for which, in test [1], the “recurrent clinical deteriorations (times observed)” value was 7 times.
For the compound `CCOC(=O)[N-]c1c[n+](N2CCOCC2)no1` [Molsidomine, N-ethoxycarbonyl-3-morpholinosydnonimine], the “TCD mean flow velocity in the left MCA (LMCA)” value in test [2] (9th day after SAH at deterioration under Molsidomine, before SNP, 140 cm/sec the day before) was 150 cm/s. In test [2] (9th day after SAH at deterioration under Molsidomine, before SNP, unchanged), the “TCD mean flow velocity in the RMCA” value was determined as 80 cm/s. Further, the “MCA TCD R/L PRE, right” value in test [2] (POD 9th first episode (R hemiplegia, aphasia), before 1st SNP dose, mean flow) is “r: 160/ cm/sec”; in test [2] (POD 9th second episode (hemiplegia l, sopor), before 2nd SNP dose), “r: 190 cm/sec”; in test [2] (POD 10th 3rd episode (hemiplegia l, sopor), before 3rd SNP dose), “r: 170 cm/sec”; in test [2] (POD 17th 4th episode (hemiplegia, hemiparesis, sopor, intubation), before 4th SNP dose), “R: 170 cm/sec”; in test [2] (POD 18 6th episode (still intubated), before 6th SNP dose) it was “R: 160 cm/sec”; in test [2] (POD 22 7th episode (sudden loss of vigilance), before 7th SNP dose), “R: 180 cm/sec”. The “MCA TCD R/L PRE, left” value in test [2] (POD 9th first episode, before 1st SNP dose, mean flow) is “l: 150 cm/sec”; in test [2] (POD 17th 4th episode, before 4th SNP dose), “L: 120 cm/sec”; in test [2] (POD 18 6th episode, before 6th SNP dose) it was “L: 110 cm/sec”; in test [2] (POD 22 7th episode, before 7th SNP dose), “L: 140 cm/sec”. In addition, the “MCA TCD R/L (values)” value in test [2] (POD 23-38, tapering of Molsidomine and Nimodipine, after 7 SNP boluses) is “Normal”. For the same compound, the “mean blood flow velocities in both MCAs” value in test [2] (intravenous Molsidomine at the full dose (16 mg/hr), with Nimodipine) is no more than 160 cm/s. In addition, the cognitive deficit result in test [1] (setting [5]) was “did not have any cognitive deficit”; in test [1] (setting [7]), “without cognitive deficit”. The mNIH-SS in test [1] (setting [5]) was determined as 0. Also, the mRS in test [1] (setting [5]) is on record as 0. Also, in test [1] (setting [6]), the “RESULT: cognitive skills” value is “full cognitive”. The “RESULT: mNIH-SS” value in test [1] (setting [6]) is “mNIH-SS: 0”. Further, in test [1] (setting [6]), the “RESULT: mRS” value is “mRS: 0”. Moreover, the “clinical stabilization (Hunt&Hess grade I, WFNS I)” value in test [1] (Molsidomine given after failure of standard therapy, before vasospasm and DCI progressed) is “clinical stabilization had been achieved for a week”. Besides, the “recurrent clinical deteriorations (times observed)” value in test [1] amounted to 7 times. In addition, in test [1] (setting [7]), the “Hunt&Hess grade” value is reported as 0. Besides, in test [1] (setting [8]), the mNIH-SS grade is recorded as 0. Also, the mRS grade in test [1] (setting [8]) is recorded as 0. Also, the “clinical status (HH I, WFNS I)” value in test [1] (intravenous Molsidomine at the full dose, for several days) is on record as “clinically stable”. For the same compound, the GCS in test [1] (intravenous Molsidomine at the full dose, several days) is on record as 14-15. Also, the “RADIOLOGY pre SNP (CT; CT-A; CT-P)” value in test [3] (POD 17th 4th episode, before 4th SNP dose, during Molsidomine, both sides l > r, CTT prolonged, high grade vasospasm in MCAs and ACA) is given as “impaired perfusion”. The “RADIOLOGY MRI: temporal ischemic lesion and gliosis at ventricular drainage site” value in test [3] (POD 23-38, tapering of Molsidomine and Nimodipine) is listed as “MRI (5): tiny”. For the same compound, the “clinical outcome and cerebral infarction” value in test [4] (SAH patients treated with intravenous molsidomine (Ehlert et al., 2015)) was “significant improvement in clinical outcome and less cerebral infarction”.
For `COc1ccccc1Oc1c(NS(=O)(=O)c2ccc(C)cn2)nc(-c2ccnc(-c3nnn[nH]3)c2)nc1OCCO` [Clazosentan], the “outcome despite powerful suppression of (measurable) vasospasms” value in test [4] (Macdonald et al. 2007) is on record as “does not lead to an improved outcome”.
